Values of other authors in patent US11638429B2, “Hypochlorous acid disinfectant and its production method” (SUPER AQUA INTERNATIONAL CO., LTD., priority 2020, dated 2023).

Test system: coliform
Settings: versus hypochlorite ion (CLO—); FIG. 2, U.S. EPA

Q: For `OCl` [hypochlorous acid (HCLO), hypochlorous acid], which “sterilization of hypochlorous acid (HCLO) relative to hypochlorite ion (CLO—)” value is on record?
A: The value was 80 times.
